Drawing on article PMC5222590 (Structure(London, England:1993), 2017), this text covers KD for 1 compound.

This assay has as its target T1, FusA (Streptococcus pneumoniae, UniProt A0A0H2URD6).
T1 sequence (A0A0H2URD6 47-538): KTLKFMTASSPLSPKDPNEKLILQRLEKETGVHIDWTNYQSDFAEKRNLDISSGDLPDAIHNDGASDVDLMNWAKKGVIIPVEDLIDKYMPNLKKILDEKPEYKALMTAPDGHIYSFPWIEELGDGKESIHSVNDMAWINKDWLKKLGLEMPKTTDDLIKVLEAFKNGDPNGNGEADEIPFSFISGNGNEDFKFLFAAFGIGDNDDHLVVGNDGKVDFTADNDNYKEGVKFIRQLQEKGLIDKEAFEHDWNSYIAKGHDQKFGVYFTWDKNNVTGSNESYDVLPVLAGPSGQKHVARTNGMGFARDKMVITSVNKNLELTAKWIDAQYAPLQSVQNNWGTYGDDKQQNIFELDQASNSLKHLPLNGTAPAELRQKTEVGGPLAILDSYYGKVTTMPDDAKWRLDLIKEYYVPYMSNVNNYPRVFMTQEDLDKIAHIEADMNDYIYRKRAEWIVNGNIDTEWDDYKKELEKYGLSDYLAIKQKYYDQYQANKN
Description: ITC. It counts as binding. As to conditions: pH 7.4, 0.15 M NaCl, 25 °C; 1:1.

The structures appear in SMILES notation.

`OC[C@H]1O[C@@](CO)(OC[C@@]2(OC[C@@]3(O[C@H]4O[C@H](CO)[C@@H](O)[C@H](O)[C@H]4O)O[C@H](CO)[C@@H](O)[C@@H]3O)O[C@H](CO)[C@@H](O)[C@@H]2O)[C@@H](O)[C@@H]1O` [GF3, nystose]: the KD result is “FusA had submicromolar affinity for fructofuranosyl-nystose and nystose”.
